Experiments:
[1] = test system: protease activity of human serum; experiment: Effect of E64 and CA-074 on the protease activities of human sera with and without treatment by immobilised papain (AFC method); format: biochemical; conditions: two normal human sera; for protease activity of sera after pre-treatment with immobilised papain, effect of inhibitor: pre-treated with immobilised papain; for small proteolytic activity of sera without pre-treatment, effect of inhibitor: without pre-treatment with immobilised papain
Experimental: FIG. 7 Effect of the inhibitors E64 and CA074 on the activity of purified cathepsin B or the protease activities of sera with and without treatment by immobilised papain. The tests were carried out with the AFC method.
(§1) The measurement of the fluorescence was done with 96-well microtiter plates by means of a fluorescence reader (for measurements with AMC: excitation at 355 nm, fluorescence at 450 nm) (for measurements with AFC: excitation at 400 nm, fluorescence at 508 nm).
(§2) In the AFC-method the assay run for the measurement of the activity was carried out in test samples at 37° C. The content of the test sample was transferred into the microtiter plate just before the measurement of the fluorescence.
The enzymatic activities of cathepsin B in small concentrations were measured of two “normal” human sera with and without pre-treatment with immobilised papain (FIG. 7).

cathepsin B = biological target: T1, cathepsin B (Bos taurus, UniProt P07688); experiment: Inhibition of cathepsin B by cystatin A; format: biochemical, bovine; conditions: 700 nM cystatin A; 5 and 10 ng cathepsin B per assay run
T1 construct: cathepsin B (purified from the bovine spleen, 10 units/ml) was used in the test; from tissue; host or cells: bovine spleen
Description: a1. Introduction: The activity measurement of cathepsin B is based on the cleavage of a dipeptide substrate • Z-Arg-Arg-fluorophore→Z-Arg-Arg+fluorophore (Z=protecting group, Arg=basic amino acid arginine)
as §1, §2
The inhibition of cathepsin B by the known inhibitor cystatin A was tested in vitro with two different cathepsin B concentrations.

Row | inhibition of cathepsin B (cathepsin B) | Molecule | protease activity of sera after pre-treatment with immobilised papain, effect of inhibitor [1] | small proteolytic activity of sera without pre-treatment, effect of inhibitor [1]
1 |  | CCCNC(=O)[C@H]1O[C@@H]1C(=O)N[C@H](C(=O)N1CCC[C@H]1C(=O)O)[C@@H](C)CC [CA-074] | reduced this activity to the value which was measured in the samples not pre-treated | inhibited neither
2 |  | CC(C)C[C@H](NC(=O)[C@H]1O[C@@H]1C(=O)O)C(=O)NCCCCN=C(N)N [E64] | reduced this activity to the value which was measured in the samples not pre-treated | inhibited neither
3 | > 95% | cystatin A: known protein inhibitor of cathepsin B (protein, UniProt P01040 1-98, looked up) Cystatin-A: MIPGGLSEAKPATPEIQEIVDKVKPQLEEKTNETYGKLEAVQYKTQVVAGTNYYIKVRAGDNKYMHLKVFKSLPGQNEDLVLTGYQVDKNKDDELTGF |  | 
